According to PubChem BioAssay (NCI):
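A five-concentration, 48-hour dose response in 96-well plates underlies each endpoint, interpolated linearly between surrounding concentrations. Here, GI50 denotes the concentration required for 50% inhibition of growth. Definition used: TGI = concentration required for complete inhibition of growth.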

How the values were obtained:
Assay in all cases: inhibition of tumour cell growth, NCI panel, 48 h
MDA-MB-435 = system: MDA-MB-435
UACC-62 melanoma = system: UACC-62 melanoma
RXF 393 renal = system: RXF 393 renal
ACHN renal = system: ACHN renal
MOLT-4 leukemia = system: MOLT-4 leukemia
A498 renal = system: A498 renal
NCI-H522 lung = system: NCI-H522 lung
LOX IMVI melanoma = system: LOX IMVI melanoma
HL-60(TB) leukemia = system: HL-60(TB) leukemia

`CCOc1ccc(N/C(=C(/C(Cl)=C(/Cl)N(CC)CC)[N+](=O)[O-])n2nnc3ccccc32)cc1` gave a TGI (MDA-MB-435) of 33.9 µM, a TGI (UACC-62 melanoma) of 28.8 µM and a TGI (RXF 393 renal) of 29.2 µM. It also gave a TGI (ACHN renal) of 47.9 µM, a TGI (MOLT-4 leukemia) of over 100 µM and a TGI (A498 renal) of 73.5 µM.

Compound `NS(=O)(=O)c1ccc(/C=C/c2ccc(F)cc2)cc1` has a GI50 (NCI-H522 lung) of 4.81 µM, a TGI (NCI-H522 lung) of 27.6 µM and a GI50 (MDA-MB-435) of 27 µM. The TGI (MDA-MB-435) was over 100 µM, the TGI (RXF 393 renal) was 46.8 µM and the GI50 (LOX IMVI melanoma) was 26.7 µM. It also gave a TGI (LOX IMVI melanoma) of over 100 µM, a GI50 (ACHN renal) of 2.97 µM and a TGI (ACHN renal) of 19.4 µM. It also gave a GI50 (MOLT-4 leukemia) of 12.9 µM, a TGI (MOLT-4 leukemia) of over 100 µM and a TGI (A498 renal) of over 100 µM. For the same compound, the GI50 (HL-60(TB) leukemia) was 37.3 µM and the TGI (HL-60(TB) leukemia) was over 100 µM.

`C=C[C@@H](C)[C@H](NS(=O)(=O)c1ccc(C)cc1)C(=O)OCC` was tested, and the TGI (NCI-H522 lung) was 57.5 µM, the TGI (MDA-MB-435) was 47.2 µM and the TGI (UACC-62 melanoma) was over 100 µM. For the same compound, the TGI (RXF 393 renal) was over 100 µM, the TGI (LOX IMVI melanoma) was 34.7 µM and the TGI (ACHN renal) was over 100 µM. For the same compound, the TGI (MOLT-4 leukemia) was over 100 µM, the TGI (A498 renal) was over 100 µM and the TGI (HL-60(TB) leukemia) was over 100 µM.

With `CC1C(=O)N(c2ccccc2)NC12CCCc1ccccc12` (stereo unspecified) the TGI (NCI-H522 lung) was over 100 µM, the TGI (MDA-MB-435) was over 100 µM and the TGI (UACC-62 melanoma) was over 100 µM. The TGI (RXF 393 renal) was over 100 µM, the TGI (LOX IMVI melanoma) was over 100 µM and the TGI (ACHN renal) was over 100 µM. It also gave a TGI (MOLT-4 leukemia) of over 100 µM, a TGI (A498 renal) of over 100 µM and a TGI (HL-60(TB) leukemia) of over 100 µM.

Compound `COc1ccc(N2C(=O)CC(=O)N(C(=O)COc3ccc(OCC(=O)N4C(=O)CC(=O)N(c5ccc(OC)cc5)C4=S)cc3)C2=S)cc1` has a TGI (NCI-H522 lung) of over 100 µM, a TGI (MDA-MB-435) of over 100 µM and a TGI (UACC-62 melanoma) of over 100 µM. The TGI (RXF 393 renal) was 77.3 µM, the TGI (ACHN renal) was over 100 µM and the TGI (MOLT-4 leukemia) was over 100 µM. The TGI (A498 renal) was over 100 µM.

Work on `COc1cc([C@@H]2c3cc4c(cc3[C@@H](c3c(O)cc(O)c5c3O[C@H](c3ccc(O)c(O)c3)[C@@H](O)C5)[C@H]3COC(=O)[C@H]23)OCO4)cc(OC)c1OC` yielded a TGI (NCI-H522 lung) of over 100 µM, a TGI (MDA-MB-435) of 3.13 µM and a TGI (UACC-62 melanoma) of 3.13 µM. The TGI (RXF 393 renal) was 3.28 µM, the TGI (LOX IMVI melanoma) was over 100 µM and the TGI (ACHN renal) was 3.16 µM. For the same compound, the TGI (MOLT-4 leukemia) was over 100 µM, the TGI (A498 renal) was 2.95 µM and the TGI (HL-60(TB) leukemia) was over 100 µM.

`Cc1ccc(OCC2OC(n3cnc4c(Cl)nc(N)nc43)CC2Oc2ccc(C)cc2)cc1` (stereo unspecified) gave a TGI (NCI-H522 lung) of 12.1 µM, a TGI (MDA-MB-435) of over 100 µM and a TGI (UACC-62 melanoma) of over 100 µM. The TGI (RXF 393 renal) was over 100 µM, the TGI (LOX IMVI melanoma) was over 100 µM and the TGI (ACHN renal) was 40 µM. It also gave a TGI (MOLT-4 leukemia) of over 100 µM, a TGI (A498 renal) of over 100 µM and a TGI (HL-60(TB) leukemia) of over 71.7 µM.

Compound `NCCCN(CCCN(C(=O)Nc1ccccc1)c1ccccc1)C(=O)Nc1ccccc1` has a TGI (NCI-H522 lung) of 43.1 µM, a TGI (UACC-62 melanoma) of 58 µM and a TGI (RXF 393 renal) of 86.2 µM. For the same compound, the TGI (LOX IMVI melanoma) was 56.6 µM, the TGI (ACHN renal) was over 100 µM and the TGI (MOLT-4 leukemia) was over 100 µM. The TGI (A498 renal) was over 100 µM and the TGI (HL-60(TB) leukemia) was 66.1 µM.

For `COc1cccc(CCN2CCN(CCCc3ccccc3)CC2)c1`, the TGI (NCI-H522 lung) was 67.9 µM, the TGI (MDA-MB-435) was over 100 µM and the TGI (UACC-62 melanoma) was over 100 µM. For the same compound, the TGI (RXF 393 renal) was over 100 µM, the TGI (LOX IMVI melanoma) was over 100 µM and the TGI (ACHN renal) was over 100 µM. For the same compound, the TGI (MOLT-4 leukemia) was over 100 µM, the TGI (A498 renal) was over 100 µM and the TGI (HL-60(TB) leukemia) was over 100 µM.

Compound `Cc1cc(S(=O)(=O)N/C(=C(\C#N)C(=O)c2ccc(Cl)cc2)[n+]2ccc(N(C)C)cc2)c([S-])cc1Cl` has a TGI (NCI-H522 lung) of over 100 µM, a TGI (MDA-MB-435) of over 100 µM and a TGI (UACC-62 melanoma) of over 100 µM. The TGI (RXF 393 renal) was over 100 µM, the TGI (ACHN renal) was over 100 µM and the TGI (MOLT-4 leukemia) was over 100 µM. It also gave a TGI (A498 renal) of 56.6 µM and a TGI (HL-60(TB) leukemia) of over 100 µM.

For `Cc1csc(NC23CC4CC(CC(C4)C2)C3)[n+]1C(P(=O)([O-])O)P(=O)(O)O` (stereo unspecified), the TGI (NCI-H522 lung) was over 100 µM, the TGI (MDA-MB-435) was over 100 µM and the TGI (UACC-62 melanoma) was over 100 µM. For the same compound, the TGI (RXF 393 renal) was over 100 µM, the TGI (LOX IMVI melanoma) was over 100 µM and the TGI (ACHN renal) was over 100 µM. It also gave a TGI (MOLT-4 leukemia) of over 100 µM and a TGI (A498 renal) of over 100 µM.
